US20060265780A1, “Interaction of glyphosate with photosystem II inhibitor herbicides as a selection tool for roundup ready events” (Monsanto Technology LLC, priority 2005, published 2006)
Read-outs that look alike come from different tables or passages of the source.

Tests used:
Format in all cases: in vivo
[1] = tested on: DKC 53-33 corn hybrid (NK 603 event); test: Greenhouse glyphosate/PSII inhibitor injury assay, Example 2; settings: single application, treated at 2 leaves unfolded (GS 12)
Method: (§1) Two corn seeds were planted one inch deep per 3.5×3.5 inch plastic pot filled with commercial potting mix (Redi-earth). The potting mix was supplemented with Osmacote™ 14-14-14 slow release fertilizer at 100 gm/ft3 to optimize growth. Pots were then placed in a greenhouse (25 C day/19 C night, 14 hour day) and water was supplied through subirrigation. Plants were allowed to grow to the stage where 3 leaves were unfolded (6-9 days after planting, approximate growth stage of GS 13) prior to the application of glyphosate and photosystem II inhibitor.
(§2) Herbicide treatments consisted of application of glyphosate and PSII inhibitor. Application rates for glyphosate (Roundup UltraMAX, Monsanto, St. Louis) included: 840 gm/ha; 1680 gm/ha; and 3360 gm/ha (i.e., 0.75 lbs/A; 1.5 lbs/A; and 3.0 lbs/A). Application rates for linuron (Lorox, DuPont) included 56 gm/ha; 112 gm/ha; and 224 gm/ha. Application rates for metribuzin (Sencor, Bayer) included 56 gm/ha; 112 gm/ha; and 224 gm/ha. Treatments were broadcast applied in a research track sprayer utilizing an even flat fan spray tip. Plants were returned to the greenhouse following applications. Growth inhibition was measured 10 days after treatment (DAT). […] Growth reduction can be measured about 7-10 DAT by direct or visual estimation (0=no growth reduction, 100=complete growth reduction).
(§3) Roundup Ready corn hybrids tested were RX 686Roundup Ready (GA 21 event) and DKC 53-33(NK 603 event). Growth of plant material and treatment regime was as described in Example 1, except plants were allowed to grow to the stage where 2 leaves were unfolded (approximately GS 12) prior to the application of glyphosate and photosystem II inhibitor. Growth inhibition was measured 10 days after treatment (DAT).

[2] = tested on: RX 686 Roundup Ready corn hybrid (GA 21 event); test: as above; settings: single application, treated at 2 leaves unfolded (GS 12)
Method: as §1, §2, §3

GA 21 corn event [3] = tested on: GA 21 corn event
Method: (§4) The glyphosate tolerance of RoundUp Ready corn events NK 603 and GA 21 were characterized in field trials. Corn was planted in 36 inch rows in plots of 4 rows by 30 ft with the two center rows being harvested. The study comprised 22 locations with 4 replicates of each treatment per location and the data were pooled across locations. Corn plants were treated with glyphosate at two consecutive developmental ages of V4 and V8. Glyphosate application rates were 0.75, 1.5, and 2.23 pounds per acre (lbs/A). Application volume was 10 gallons/acre. […] Data for chlorosis, malformed leaves, and growth reduction was collected at 22 locations. Also, at harvest of mature corn plants, the yield percentage and grain moisture percentage were assessed. Data for yield and grain moisture was collected at harvest at 19 locations and expressed as the mean percentage yield or moisture with respect to controls.

NK 603 corn event [4] = tested on: NK 603 corn event
Method: as §4

GA 21 corn event [5] = settings: for % Yield / % Grain Moisture: harvest, 19 locations
NK 603 corn event [6] = tested on: NK 603 corn event; remark: listed apart in the source
[7] = glyphosate rate 0.75/0.75 (lbs/A) at V4/V8, 22 locations
[8] = glyphosate rate 0.75/0.75 at V4/V8, mean with respect to controls, harvest, 19 locations
[9] = glyphosate rate 1.5/1.5 (lbs/A) at V4/V8, 22 locations
[10] = glyphosate rate 1.5/1.5 at V4/V8, locations with injury greater than 9%
[11] = glyphosate rate 2.25/2.25 at V4/V8, locations with injury greater than 9%
[12] = NK 603, glyphosate rate 0.75/0.75 (lbs/A) at V4/V8, 22 locations
[13] = NK 603, glyphosate rate 1.5/1.5 (lbs/A) at V4/V8, 22 locations
[14] = NK 603, glyphosate rate 1.5/1.5 at V4/V8, mean with respect to controls, harvest, 19 locations
[15] = glyphosate rate 2.25/2.25 (lbs/A) at V4/V8, 22 locations
[16] = glyphosate rate 2.25/2.25 at V4/V8, mean with respect to controls
[17] = glyphosate rate 2.25/2.25 at V4/V8, mean with respect to controls, harvest, 19 locations

O=C(O)CNCP(=O)(O)O [glyphosate, N-phosphonomethylglycine]
crop injury [1]: did not produce any discernable crop injury | crop injury [2]: did not produce any discernable crop injury | % Chlorosis 10 DAT: number of locations exhibiting injury greater than 9% (GA 21 corn event [3]; [7]): None | % Malform 10 DAT: number of locations exhibiting injury greater than 9% (GA 21 corn event [3]; [7]): None | % Grain Moisture (GA 21 corn event [3]; [8]): 100.7% | % Growth Reduction 30 DAT: number of locations exhibiting injury greater than 9% (GA 21 corn event [3]; [9]): 1 | % Growth Reduction 10 DAT: percentage range of observed injury (GA 21 corn event [3]; [10]): 10-14% | % Growth Reduction 30 DAT: percentage range of observed injury (GA 21 corn event [3]; [10]): 11% | % Yield (GA 21 corn event [3]; glyphosate rate 1.5/1.5 at V4/V8, mean with respect to controls, harvest, 19 locations): 97.8% | % Chlorosis 10 DAT: percentage range of observed injury (GA 21 corn event [3]; [11]): 11-21% | % Growth Reduction 30 DAT: percentage range of observed injury (GA 21 corn event [3]; [11]): 10-13% | % Chlorosis 10 DAT: number of locations exhibiting injury greater than 9% (NK 603 corn event [4]; [12]): None | % Malform 10 DAT: number of locations exhibiting injury greater than 9% (NK 603 corn event [4]; [12]): None | % Yield (NK 603 corn event [4]; NK 603, glyphosate rate 0.75/0.75 at V4/V8, mean with respect to controls, harvest, 19 locations): 103.3% | % Chlorosis 10 DAT: number of locations exhibiting injury greater than 9% (NK 603 corn event [4]; [13]): None | % Growth Reduction 30 DAT: number of locations exhibiting injury greater than 9% (NK 603 corn event [4]; [13]): None | % Malform 10 DAT: percentage range of observed injury (NK 603 corn event [4]; NK 603, glyphosate rate 1.5/1.5 at V4/V8, locations with injury greater than 9%): 10-11% | % Grain Moisture (NK 603 corn event [4]; [14]): 101.7% | % Yield (NK 603 corn event [4]; [14]): 99.4% | injury (NK 603 corn event [4]; glyphosate applications up to 3360 gm/ha, even applied sequentially, NK 603 event (e.g. DKC 53-33 hybrid)): no injury | % Growth Reduction 10 DAT: number of locations exhibiting injury greater than 9% (GA 21 corn event [5]; [7]): None | % Growth Reduction 30 DAT: number of locations exhibiting injury greater than 9% (GA 21 corn event [5]; [7]): None | % Yield (GA 21 corn event [5]; glyphosate rate 0.75/0.75 at V4/V8, mean with respect to controls): 101.8% | % Chlorosis 10 DAT: number of locations exhibiting injury greater than 9% (GA 21 corn event [5]; [9]): 3 | % Growth Reduction 10 DAT: number of locations exhibiting injury greater than 9% (GA 21 corn event [5]; [9]): 5 | % Malform 10 DAT: number of locations exhibiting injury greater than 9% (GA 21 corn event [5]; [9]): 5 | % Chlorosis 10 DAT: percentage range of observed injury (GA 21 corn event [5]; [10]): 10-14% | % Malform 10 DAT: percentage range of observed injury (GA 21 corn event [5]; [10]): 11-16% | % Grain Moisture (GA 21 corn event [5]; glyphosate rate 1.5/1.5 at V4/V8, mean with respect to controls): 101.0% | % Chlorosis 10 DAT: number of locations exhibiting injury greater than 9% (GA 21 corn event [5]; [15]): 3 | % Growth Reduction 10 DAT: number of locations exhibiting injury greater than 9% (GA 21 corn event [5]; [15]): 7 | % Growth Reduction 30 DAT: number of locations exhibiting injury greater than 9% (GA 21 corn event [5]; [15]): 4 | % Malform 10 DAT: number of locations exhibiting injury greater than 9% (GA 21 corn event [5]; [15]): 6 | % Growth Reduction 10 DAT: percentage range of observed injury (GA 21 corn event [5]; [11]): 11-30% | % Malform 10 DAT: percentage range of observed injury (GA 21 corn event [5]; [11]): 10-33% | % Grain Moisture (GA 21 corn event [5]; [16]): 101.6% | % Yield (GA 21 corn event [5]; [16]): 90.8% | % Growth Reduction 10 DAT: number of locations exhibiting injury greater than 9% (NK 603 corn event [6]; [7]): None | % Growth Reduction 30 DAT: number of locations exhibiting injury greater than 9% (NK 603 corn event [6]; [7]): None | % Grain Moisture (NK 603 corn event [6]; [8]): 100.2% | % Growth Reduction 10 DAT: number of locations exhibiting injury greater than 9% (NK 603 corn event [6]; [9]): None | % Malform 10 DAT: number of locations exhibiting injury greater than 9% (NK 603 corn event [6]; [9]): 3 | % Chlorosis 10 DAT: number of locations exhibiting injury greater than 9% (NK 603 corn event [6]; [15]): 3 | % Growth Reduction 10 DAT: number of locations exhibiting injury greater than 9% (NK 603 corn event [6]; [15]): 3 | % Growth Reduction 30 DAT: number of locations exhibiting injury greater than 9% (NK 603 corn event [6]; [15]): 2 | % Malform 10 DAT: number of locations exhibiting injury greater than 9% (NK 603 corn event [6]; [15]): 6 | % Chlorosis 10 DAT: percentage range of observed injury (NK 603 corn event [6]; [11]): 11-19% | % Growth Reduction 10 DAT: percentage range of observed injury (NK 603 corn event [6]; [11]): 10-19% | % Growth Reduction 30 DAT: percentage range of observed injury (NK 603 corn event [6]; [11]): 11-15% | % Malform 10 DAT: percentage range of observed injury (NK 603 corn event [6]; [11]): 11-19% | % Grain Moisture (NK 603 corn event [6]; [17]): 103.1% | % Yield (NK 603 corn event [6]; [17]): 96.6%

CON(C)C(=O)Nc1ccc(Cl)c(Cl)c1 [linuron]
crop injury [1]: did not produce any discernable crop injury | crop injury [2]: did not produce any discernable crop injury

CSc1nnc(C(C)(C)C)c(=O)n1N [metribuzin]
crop injury [1]: did not produce any discernable crop injury | crop injury [2]: did not produce any discernable crop injury
